Data: paper PMC8778818, “Synthesis, Structural Characterization and Anticancer Activity of New 5-Trifluoromethyl-2-thioxo-thiazolo[4,5-d]pyrimidine Derivatives” (Pharmaceuticals, 2022)
Several values for one entry are separate records, joined by “and”; a condition that tells them apart may be missing. Equal entries are not always repeated.

How the values were obtained:
DU145 = experiment: MTT cell viability assay, DU145; type: cell-based, human; conditions: Homo sapiens, DU-145; DU145, MTT, 72 h, mean ± SD
Protocol: Twelve compounds (2a-e, 3a-d and 4a-c) at a concentration range of 50–5000 μM were tested for their antiproliferative potential against four human cancer cell lines (A375—melanotic melanoma, C32—amelanotic melanoma, DU145—prostate cancer androgen-independent, MCF-7/WT—breast adenocarcinoma) and two normal cell lines: Chinese Hamster Ovary (CHO-K1) and immortalized human keratinocytes from histologically normal skin (HaCaT).
To determine the antiproliferative activity of newly synthesized compounds, the following cell lines were used: human melanotic melanoma cell line (A375), human amelanotic melanoma cell line (C32), human breast adenocarcinoma cell line (MCF-7/WT), human prostate cancer androgen-independent (DU145) and two normal cell lines: hamster ovarian (CHO-K1) and immortalized human keratinocytes from histologically normal skin (HaCaT). The cells were obtained from the cell line bank of the Department of Molecular and Cellular Biology, Wroclaw Medical University. A375, C32, MCF-7/WT, DU145 and HaCaT cells were grown in a monolayer cultured in Dulbecco’s Modified Eagle’s Medium (DMEM, Sigma-Aldrich, Poznań, Poland), supplemented with 10% of fetal bovine serum (FBS, Gibco, Paisley, UK) and 1% of antibiotics (penicillin/streptomycin, Sigma-Aldrich) and CHO-K1 were grown in HAM’s F-12 medium (Sigma-Aldrich), supplemented with 10% fetal bovine serum (FBS, Gibco) and 1% of antibiotics (penicillin/streptomycin, Sigma-Aldrich). Cell lines were cultured in the polystyrene flasks 25 or 75 cm^2 (Thermo Fisher Scientific, Waltham, MA, USA), which were stored in 37 °C and 5% CO2 in a humidified 95% atmosphere (SteriCult, Thermo Scientific, Alab). The cell medium was exchanged twice a week. The exponentially growing cells were used throughout the experiments. The cells were rinsed with phosphate-buffered saline (PBS, Sigma-Aldrich) and trypsinized by Trypsin-EDTA 0.25% solution (Sigma-Aldrich).
The influence of the compounds was performed in a monolayer culture on cancer and normal cells. Compounds were initially dissolved in DMSO; further dilutions of the compound were performed in Dulbecco’s Modified Eagle’s Medium supplemented with 10% FBS. Compounds were tested in a 50–5000 µM concentration range. In the in vitro experiments, the concentrations of DMSO in the final solution of the compounds were used 0.05%; 0.1%; 0.5%; 1%, respectively.
Cell viability was determined using the MTT colorimetric assay. All cell lines were seeded into 96-well plates to a density of 3 × 10^4 cells/well. After 24 h, the culture supernatants were removed and appropriate dilutions of compounds in the culture medium (200 µL/well) were added to the cells’ monolayer cultures and incubated for an additional 72 h. After 72 h of exposition to the compounds and the removal of the culture medium, cell viability was determined by reducing the yellow dye 3-(4,5-dimethyl-2-thiazol)-2,5-diphenyl-2H-tetrazolium bromide (MTT assay, Sigma Saint Louis, MO, USA; In Vitro Toxicology Assay) to a blue formazan product. The absorbance of the resulting solutions in three duplicate experiments was measured at the wavelength of 560 nm in a microplate reader (EnSpire, Perkin Elmer, Kraków, Poland). MTT assay is a colorimetric method that estimates the rate of metabolism in viable cells. Absorbance is directly proportional to the number of viable cells. All the experiments were performed three times and the mean absorbance values were calculated. The methodology for the evaluation of the growth of human cancer and normal cells was described previously. The cell viability in each group was expressed as a percentage of control (untreated) cells.

CCRF-CEM = experiment: NCI-60 screen, Leukemia CCRF-CEM; type: cell-based, human
MOLT-4 = experiment: NCI-60 screen, Leukemia MOLT-4; type: cell-based, human
RPMI-8226 = experiment: NCI-60 screen, Leukemia RPMI-8226; type: cell-based, human
COLO-205 = experiment: NCI-60 screen, Colon Cancer COLO-205; type: cell-based, human
HCT-15 = experiment: NCI-60 screen, Colon Cancer HCT-15; type: cell-based
HCC-2998 = experiment: NCI-60 screen, Colon Cancer HCC-2998; type: cell-based, human
U251 = experiment: NCI-60 screen, CNS Cancer U251; type: cell-based, human; conditions: U251, five doses 10^−4–10^−8 M
MALME-3M = experiment: NCI-60 screen, Melanoma MALME-3M; type: cell-based, human
SK-MEL-2 = experiment: NCI-60 screen, Melanoma SK-MEL-2; type: cell-based, human
SK-MEL-28 = experiment: NCI-60 screen, Melanoma SK-MEL-28; type: cell-based
UACC-257 = experiment: NCI-60 screen, Melanoma UACC-257; type: cell-based
OVCAR-4 = experiment: NCI-60 screen, Ovarian Cancer OVCAR-4; type: cell-based, human
OVCAR-8 = experiment: NCI-60 screen, Ovarian Cancer OVCAR-8; type: cell-based, human
SN12C = experiment: NCI-60 screen, Renal Cancer SN12C; type: cell-based
UO-31 = experiment: NCI-60 screen, Renal Cancer UO-31; type: cell-based
RXF 393 = experiment: NCI-60 screen, Renal Cancer RXF 393; type: cell-based, human
PC-3 = experiment: NCI-60 screen, Prostate C. PC-3; type: cell-based
MDA-MB-231/ATCC = experiment: NCI-60 screen, Breast Cancer MDA-MB-231/ATCC; type: cell-based
HS 578T = experiment: NCI-60 screen, Breast Cancer HS 578T; type: cell-based, human
[1] = Homo sapiens, five doses 10^−4–10^−8 M
[2] = Homo sapiens, five doses 10^−4–10^−8 M, read-out: log LC50 (the source's name) (converted)
[3] = Homo sapiens, MOLT-4, five doses 10^−4–10^−8 M
[4] = Homo sapiens, COLO-205, five doses 10^−4–10^−8 M
[5] = Homo sapiens, HCC-2998, five doses 10^−4–10^−8 M
[6] = Homo sapiens, SK-MEL-2, five doses 10^−4–10^−8 M

FC(F)(F)c1nc(Cl)c2sc(=S)n(-c3ccccc3)c2n1 [Compound 3b, 7-chloro-3-phenyl-5-(trifluoromethyl)[1, 3]thiazolo[4,5-d]pyrimidine-2(3H)-thione]
IC50 (DU145): 55.1 ± 1.1 µM
Growth of Cells (%) (CCRF-CEM; 10^−5 M one dose): −51.41%
GI50 (CCRF-CEM; [1]): 0.933 µM
CC50 (CCRF-CEM; [2]): > 100 µM
log TGI (CCRF-CEM; five doses 10^−4–10^−8 M): −5.50 log M
GI50 (MOLT-4; [3]): 3.09 µM
LC50 (MOLT-4; [3]): > 100 µM
Growth of Cells (%) (MOLT-4; MOLT-4, 10^−5 M one dose): −27.71%
log TGI (MOLT-4; MOLT-4, five doses 10^−4–10^−8 M): −5.07 log M
GI50 (RPMI-8226; Homo sapiens, RPMI-8226, five doses 10^−4–10^−8 M): 2.51 µM
CC50 (RPMI-8226; Homo sapiens, RPMI-8226, five doses 10^−4–10^−8 M, read-out: log LC50 (the source's name) (converted)): > 100 µM
Growth of Cells (%) (RPMI-8226; RPMI-8226, 10^−5 M one dose): 44.45%
log TGI (RPMI-8226; RPMI-8226, five doses 10^−4–10^−8 M): −5.11 log M
Growth of Cells (%) (COLO-205; COLO-205, 10^−5 M one dose): 30.63%
log TGI (COLO-205; COLO-205, five doses 10^−4–10^−8 M): −5.44 log M
GI50 (COLO-205; [4]): 1.95 µM
LC50 (COLO-205; [4]): 6.61 µM
Growth of Cells (%) (HCT-15; HCT-15, 10^−5 M one dose): 2.98%
log TGI (HCT-15; HCT-15, five doses 10^−4–10^−8 M): −5.26 log M
GI50 (HCT-15; Homo sapiens, HCT-15, read-out: log GI50 (converted)): 1.86 µM
CC50 (HCT-15; Homo sapiens, HCT-15, five doses 10^−4–10^−8 M, read-out: log LC50 (the source's name) (converted)): > 100 µM
Growth of Cells (%) (HCC-2998; HCC-2998, 10^−5 M one dose): −26.98% and −26.89%
log TGI (HCC-2998; HCC-2998, five doses 10^−4–10^−8 M): −5.31 log M
GI50 (HCC-2998; [5]): 2.24 µM
LC50 (HCC-2998; [5]): 12.9 µM
GI50 (U251; Homo sapiens, U-251): 1.74 µM
LC50 (lethal concentration 50%) (U251; Homo sapiens, U-251): 5.75 µM
log TGI (U251): −5.50 log M
Growth of Cells (%) (MALME-3M; 10^−5 M one dose): 40.72%
GI50 (MALME-3M; [1]): 2.29 µM
LC50 (concentration causing 50% cell kill) (MALME-3M; [1]): 8.13 µM
log TGI (MALME-3M; five doses 10^−4–10^−8 M): −5.37 log M
GI50 (SK-MEL-2; [6]): 2 µM
LC50 (SK-MEL-2; [6]): 7.24 µM
Growth of Cells (%) (SK-MEL-2; SK-MEL-2, 10^−5 M one dose): 55.66%
log TGI (SK-MEL-2; SK-MEL-2, five doses 10^−4–10^−8 M): −5.42 log M
GI50 (SK-MEL-28; Homo sapiens, SK-MEL-28, five doses 10^−4–10^−8 M): 1.95 µM
CC50 (SK-MEL-28; Homo sapiens, SK-MEL-28, five doses 10^−4–10^−8 M, read-out: log LC50 (the source's name) (converted)): 6.46 µM
Growth of Cells (%) (SK-MEL-28; SK-MEL-28, 10^−5 M one dose): −62.53%
log TGI (SK-MEL-28; SK-MEL-28, five doses 10^−4–10^−8 M): −5.45 log M
GI50 (UACC-257; Homo sapiens, UACC-257, five doses 10^−4–10^−8 M): 1.74 µM
CC50 (UACC-257; Homo sapiens, UACC-257, five doses 10^−4–10^−8 M, read-out: log LC50 (the source's name) (converted)): 7.94 µM
Growth of Cells (%) (UACC-257; UACC-257, 10^−5 M one dose): 19.38%
log TGI (UACC-257; UACC-257, five doses 10^−4–10^−8 M): −5.43 log M
GI50 (OVCAR-4; Homo sapiens, OVCAR-4, five doses 10^−4–10^−8 M): 1.78 µM
CC50 (OVCAR-4; Homo sapiens, OVCAR-4, five doses 10^−4–10^−8 M, read-out: log LC50 (the source's name) (converted)): 7.24 µM
Growth of Cells (%) (OVCAR-4; OVCAR-4, 10^−5 M one dose): 23.73%
log TGI (OVCAR-4; OVCAR-4, five doses 10^−4–10^−8 M): −5.44 log M
GI50 (OVCAR-8; Homo sapiens, OVCAR-8, five doses 10^−4–10^−8 M): 1.95 µM
CC50 (OVCAR-8; Homo sapiens, OVCAR-8, five doses 10^−4–10^−8 M, read-out: log LC50 (the source's name) (converted)): > 100 µM
Growth of Cells (%) (OVCAR-8; OVCAR-8, 10^−5 M one dose): 4.40%
log TGI (OVCAR-8; OVCAR-8, five doses 10^−4–10^−8 M): −5.27 log M
Growth of Cells (%) (SN12C; 10^−5 M one dose): 85.61%
CC50 (SN12C; [2]): 40.7 µM
GI50 (SN12C; Homo sapiens, read-out: log GI50 (converted)): 3.55 µM
log TGI (SN12C; five doses 10^−4–10^−8 M): −4.88 log M
GI50 (UO-31; Homo sapiens, UO-31, read-out: log GI50 (converted)): 1.7 µM
CC50 (UO-31; Homo sapiens, UO-31, five doses 10^−4–10^−8 M, read-out: log LC50 (the source's name) (converted)): 6.03 µM
Growth of Cells (%) (UO-31; UO-31, 10^−5 M one dose): −82.97%
log TGI (UO-31; UO-31, five doses 10^−4–10^−8 M): −5.49 log M
GI50 (RXF 393; Homo sapiens, RXF 393, five doses 10^−4–10^−8 M): 1.82 µM
CC50 (RXF 393; Homo sapiens, RXF 393, five doses 10^−4–10^−8 M, read-out: log LC50 (the source's name) (converted)): 6.17 µM
Growth of Cells (%) (RXF 393; RXF 393, 10^−5 M one dose): −16.27%
log TGI (RXF 393; RXF 393, five doses 10^−4–10^−8 M): −5.47 log M
GI50 (PC-3; Homo sapiens, PC-3, five doses 10^−4–10^−8 M): 1.82 µM
CC50 (PC-3; Homo sapiens, PC-3, five doses 10^−4–10^−8 M, read-out: log LC50 (the source's name) (converted)): 6.76 µM
Growth of Cells (%) (PC-3; PC-3, 10^−5 M one dose): 53.66%
log TGI (PC-3; PC-3, five doses 10^−4–10^−8 M): −5.45 log M
GI50 (MDA-MB-231/ATCC; Homo sapiens, MDA-MB-231, read-out: log GI50 (converted)): 2 µM
CC50 (MDA-MB-231/ATCC; Homo sapiens, MDA-MB-231/ATCC, five doses 10^−4–10^−8 M, read-out: log LC50 (the source's name) (converted)): 7.59 µM
Growth of Cells (%) (MDA-MB-231/ATCC; MDA-MB-231/ATCC, 10^−5 M one dose): 13.85%
log TGI (MDA-MB-231/ATCC; MDA-MB-231/ATCC, five doses 10^−4–10^−8 M): −5.41 log M
Growth of Cells (%) (HS 578T; 10^−5 M one dose): 21.84%
GI50 (HS 578T; [1]): 2.82 µM
CC50 (HS 578T; [2]): > 100 µM
log TGI (HS 578T; five doses 10^−4–10^−8 M): −5.07 log M
Growth of Cells (%) (M14; M14, 10^−5 M one dose): 26.96%
log TGI (M14; M14, five doses 10^−4–10^−8 M): −5.39 log M
